Assay results published in US7432045B2 (priority 2003, dated 2008).
Peptide text beside a SMILES is read from it. * marks the point of attachment. Biotin = O=C1N[C@H]2[C@H](CS[C@H]2CCCCC(=O)*)N1; Ahx = NCCCCCC(=O)O

Columns and labels:
HSV-1 KOS mutant hrR3 [1] = experiment: Release of preadsorbed virus into the culture medium; format: cell-based
Protocol: Release of preadsorbed virus into the culture medium: Virus preadsorbed to Vero cells (m.o.i.=0.02) was exposed to heparin (porcine intestinal mucosa; Sigma-Aldrich Co., St. Louis Mo.; #H9399) or to peptides in 40 μL of serum-supplemented DMEM. After 1 h at 4° C., the culture medium and two 40 μL rinses were collected and pooled from eight identically treated wells. Pooled samples were centrifuged at 14,000×g in an Eppendorf 5415 centrifuge for 99 min at 4° C. or they were first adjusted to 0.5 M NaCl by adding 2 M NaCl dissolved in serum-supplemented DMEM prior to centrifugation. Supernatants were aspirated, the pellets were resuspended in 120 μL serum-supplemented DMEM and duplicate 50 μL aliquots were assayed for infectivity in Vero cell cultures. Calculations of the amount of released virus assumed 47% virus recovery in the centrifugation step, since control experiments had established that 47% of virus input was recovered regardless of whether the virus was sedimented in the presence or absence of 0.5 M NaCl.
In this example pre-adsorbed virus was exposed to heparin (FIG. 19 Panels A, B) or TAT-Cd peptide (FIG. 19 Panels C, D) for 1 h at 4° C. (FIG. 19 Panels A, B, C) or 18° C. (FIG. 19 Panel D) and any virus released into the culture medium during this time was collected and pelleted in the presence (◯) or absence (▴) of 0.5 M NaCl and assayed for infectivity as described in Example 1. […] Virus inhibition (●) corresponds to the number of LacZ+ cells seen in the absence of inhibitor minus the number of LacZ+ cells seen in the presence of inhibitor and is equivalent to the maximal amount of virus potentially released into the culture medium as a result of virus inhibition. Panel B compares the amount of infectious virus recovered in the presence (◯; data from Panel A) and absence (▴) of 0.5 M NaCl at an expanded scale.

hrR3 virions = experiment: Inactivation of virions in solution; format: cell-based, HSV-1; settings: 200 μM peptide
Protocol: Inactivation of virions: To assess the ability of peptides to inactivate virions, 3-4×10^6 pfu/mL of virus was mixed on ice with peptide in serum-free DMEM and incubated for 1 h at 4 or 37° C. Aliquots (10 μL) were diluted 1000-fold into peptide-free serum-supplemented DMEM at 23° C. and 50 μL aliquots were assayed in triplicate for infectivity in Vero cell cultures (dilution assay). Alternatively, 10 μL aliquots were diluted into 1 mL of ice-cold peptide-free serum-supplemented DMEM and the virus was pelleted as described above (centrifugation assay). Viral pellets were then resuspended in 250 μL serum-supplemented DMEM and 50 μL aliquots were assayed in triplicate for infectivity in Vero cell cultures.
Some of the virus diluted without the addition of NaCl was pelleted immediately (Control), while the rest of the diluted virus was stored at 4° C. and pelleted 19 h later. The virus was pelleted and assayed for infectivity as described in Example 1.

cornea = experiment: In vivo peptide toxicity, cornea; parameters: species or system BALB/C mice
Protocol: (i) Cornea: Four-6-week-old female BALB/C mice (Harlan Sprague Dawley, Indianapolis, Ind.) were anesthetized by halothane inhalation (3-5%). A 2.0 μL drop of serum-free 5×DMEM solution containing 6.1 mM EB, 6.1 mM EBX, 7.5 mM TAT-C, 7.5 mM n50,51 TAT-C, 7.5 mM TAT-Cd, or 11.2 mM bHOMd or serum-free DMEM only (control) was then placed on the cornea and the mice were returned to their cages. Each group consisted of 5 mice, except for 11.2 mM bHOMd, and 7.5 mM TAT-Cd, which consisted of 4 mice. Only the right eye in each mouse received the peptide. Treatments were given 4 times per day at least 2 hrs apart for 7 days. On days 1, 5, and 7, the mice were examined microscopically for evidence of blepharitis, punctate keratopathy, dendrite ulceration and geographic ulceration. Damage to the corneal epithelium was assessed by staining with 1.0% […] and examination under a microscope with blue light. Blepharitis was scored: 1+ for noticeable puffy eyelids, 2+ for puffy eyelids with moderate crusting, 3+ for eye 50% swollen shut with severe crusting, and 4+ for eye totally swollen and crusted shut (Brandt et al., 1992). Punctate keratopathy, dendrite ulceration, and geographic ulceration were scored: 1+ for <25% of the cornea involved, 2+ for 25-50% involved, 3+ for 50-75% involved, and 4+ for >75% involved. The mean disease score for each group of mice on each day was calculated by the sum of disease scores in each group on each day divided by the numbers of mice in that group. On day 7, following the last treatment, the mice were sacrificed and the eyes were removed, fixed in 10% formalin, embedded in paraffin, sectioned (5μ each), and stained with hematoxylin and eosin as we have described previously (Brandt et al., 1996). Sections were then examined for evidence of damage to the cornea, sclera, lens, and retina.

trypsin = target: T1, trypsin (Sus scrofa, UniProt P00761); experiment: Trypsinization of peptides; settings: 0.005 or 0.01% trypsin, 1 h at 37° C.
T1 construct: purchased BioWhittaker 17-160E
Protocol: Trypsinization of peptides: Peptides dissolved in serum-free DMEM were exposed to 0.005 or 0.01% trypsin for 1 h at 37° C. The trypsin was then inactivated with a 1.3-fold molar excess of soybean trypsin inhibitor and the ability of the peptides to inactivate virions was tested as described above (centrifugation assay). In controls, trypsin was inactivated before it was added to the peptides.
In Panel B, peptides in serum-free medium were pre-treated with active trypsin (open bars) or inactivated trypsin (shaded bars) for 1 h at 37° C. before they were added to virions for 1 h at 37° C. (see Example 1). The treated virions were then pelleted and resuspended in serum-supplemented medium and assayed for infectivity without further trypsinization. The peptide concentrations were as high or higher than those used in Panel A: […] TAT-C, 50 μM bKLA, 200 μM EB and bHOM-9. Trypsin concentrations used in both Panels A and B, were 0.005% (for bKLA, EB and bHOM-9) or 0.01% (for TAT-C and the ‘no peptide’ control).

HSV-1 KOS mutant hrR3 [2] = experiment: Inactivation of pre-adsorbed virus (virus inactivation); format: cell-based; settings: pre-adsorbed virus
Protocol: Two assays were used to assess the ability of the TAT peptides to inhibit infection of Vero cells with the hrR3 virus. In both assays, the virus was preadsorbed to cells at 4° C. and entry was initiated in the presence of peptide by shifting the cultures to a permissive temperature (30-37° C.). One hour later, the peptide was rinsed off. The entry blocking activity was measured in half of the cultures, in which any extracellular virus remaining after the peptide treatment was inactivated with low pH citrate buffer. The rest of the cultures were exposed to PBS instead of citrate buffer and used to measure virus inactivation. Virus inactivation depended on persistent effects of the peptide lasting for a period of eight hours. At the end of that period, all cultures were fixed and infected cells were detected by staining with X-gal.
Virus (m.o.i.=0.025) was preadsorbed to Vero cells for 1 h at 4° C. before cultures were exposed to TAT-C (FIG. 15A), bTAT-9X (FIG. 15B), or n50,51TAT-C (FIGS. 15C, 15D) for 1 h at 33 (FIGS. 15A, 15B), 31 (FIG. 15C), or 37° C. (FIG. 15D). […] Inhibition of entry was measured in the citrate-treated cultures, in which any remaining external virus was inactivated immediately following exposure to peptide (●). Persistent virus inactivation lasting, at least in part, for the 8 h period following exposure to peptide, was measured in the PBS-treated cultures (◯). The IC50s measured in these experiments are included in Table 5.

MTS assay [3] = settings: African green monkey, CV-1PD cells (kidney)
MTS assay [4] = settings: human, HeLa cells
MTS assay [5] = settings: human, TM-1 cells (trabecular meshwork)
MTS assay [6] = settings: human, W12E cells (cervical carcinoma cell line)
MTS assay [7] = settings: human, NIKS cells (normal immortalized keratinocytes)
MTS assay [8] = settings: African green monkey, Vero cells
[9] = system: Vero, HeLa, CV-1PD, TM-1, DP-9, CEMx174, NIKS, W12E cells; experiment: MTS assay, eight cell lines; settings: eight cell lines
MTS assay [10] = settings: human, DP-9 cells (foreskin fibroblast)
MTS assay [11] = settings: human, CEMx174 cells (T-B hybridoma)
vagina = settings: mouse, in vivo

T1 sequence (P00761 9-231): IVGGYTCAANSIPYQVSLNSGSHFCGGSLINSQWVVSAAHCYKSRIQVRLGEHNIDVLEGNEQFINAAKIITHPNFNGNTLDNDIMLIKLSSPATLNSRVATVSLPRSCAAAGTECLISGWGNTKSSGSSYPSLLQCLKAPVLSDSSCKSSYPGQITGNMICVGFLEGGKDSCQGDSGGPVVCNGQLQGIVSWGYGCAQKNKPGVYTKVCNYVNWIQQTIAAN

N=C(N)NCCC[C@@H](NC(=O)CN)C(=O)N[C@H](CCCCN)C(=O)N[C@H](CCCCN)C(=O)N[C@H](CCCNC(=N)N)C(=O)N[C@H](CCCNC(=N)N)C(=O)N[C@H](CCC(N)=O)C(=O)N[C@H](CCCNC(=N)N)C(=O)N[C@H](CCCNC(=N)N)C(=O)N[C@H](CCCNC(=N)N)C(=O)N[C@H](CS)C(=O)O [TAT-Cd, NH2-GRKKRRQRRRC-COOH]
inactivation of preadsorbed virus (HSV-1 KOS mutant hrR3 [1]; 18° C.): 93% | virus recovery (HSV-1 KOS mutant hrR3 [1]; 18° C., 0.5 M NaCl): ≤ 5.6% | potentially released virus actually recovered in the medium (HSV-1 KOS mutant hrR3 [1]; 1 h treatment at 4° C., 0.5 M NaCl): 4.4% | infectious preadsorbed virus recovered in the culture medium (maximal) (HSV-1 KOS mutant hrR3 [1]; summary, FIG. 19): about 5% | recovery of infectious virions, of the mock-treated virus (hrR3 virions; 1 h at 37° C., pelleted immediately): < 1% | increase of viral yields by 0.5 M NaCl during 19 h incubation, of the mock-treated controls (hrR3 virions; 19 h at 4° C.): about 1% | punctate keratopathy (cornea; calcein staining): very mild punctate keratopathy | blepharitis (cornea; four times a day for seven days): mild blepharitis | concentration at which not active against the H5 strain (H5 Avian Influenza virus): > 100 µM | effect of trypsinization of the peptide on its antiviral activity (trypsin): no effect on antiviral activity | plateau / maximal extent of virus inactivation (HSV-1 KOS mutant hrR3 [2]): ~100% | inhibition after rinsing with 0.5 M NaCl (hrR3; 30 μM peptide 1 h at 4° C.): completely reversed | infection blocked (hrR3; 30 μM peptide 1 h at 4° C., rinsed with culture medium alone): 90% | time needed to induce cellular resistance (hrR3; 30 μM peptide, 37° C.): almost instantaneously

CC[C@H](C)[C@H](NC(=O)[C@H](CCCCN)NC(=O)[C@@H](NC(=O)[C@H](CCC(N)=O)NC(=O)[C@H](CCCNC(=N)N)NC(=O)CCCCCNC(=O)CCCC[C@@H]1SC[C@@H]2NC(=O)N[C@@H]21)[C@@H](C)CC)C(=O)N[C@@H](Cc1c[nH]c2ccccc12)C(=O)N[C@@H](Cc1ccccc1)C(=O)N1CCC[C@H]1C(=O)N[C@@H](CC(N)=O)C(=O)N[C@@H](CCCNC(=N)N)C(=O)N[C@@H](CCCNC(=N)N)C(=O)N[C@@H](CCSC)C(=O)N[C@@H](CCCCN)C(=O)N[C@@H](Cc1c[nH]c2ccccc12)C(=O)N[C@@H](CCCCN)C(=O)N[C@@H](CCCCN)C(N)=O [bHOM] ({Biotin-Ahx}-RQIKIWFPNRRMKWKK-NH2; N-terminus and C-terminus assumed)
EC50 (MTS assay [3]): 180 µM | EC50 (MTS assay [4]): 100 µM | EC50 (MTS assay [5]): > 200 µM | EC50 (MTS assay [6]): > 200 µM | EC50 (MTS assay [7]): > 200 µM | EC50 (MTS assay [8]): 75 µM | cytotoxicity to cells (MTS), overall [9]: generally not cytotoxic | EC50 (MTS assay [10]): 150 µM | EC50 (MTS assay [11]): 50 µM

nonoxynol-9 [N−9]
effect on vaginal tissues (H&E sections) (vagina): No differences in the appearance of the tissues
